Measured values from patent US10537558B2 (Bantam Pharmaceutical, LLC, priority 2015, dated 2020).

System: BJAB cells
Test: BJAB cell proliferation (Cell Titer Glo)
Type: cell-based
Details: not given
Procedure, shortened: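 BJAB cells exposed to serially diluted compounds (0.1% DMSO final) for about 72 h at 37 °C. Proliferation read by Cell Titer Glo luminescence as percent of untreated controls; EC50 from non-linear regression of dose-response data.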

In the case of Cc1nn(-c2nc(-c3ccc(C#N)cc3)c(SC(C)C)s2)c(C(=O)O)c1-c1cccc(F)c1 [Compound 213, 1-(4-(4-cyanophenyl)-5-(isopropylthio)thiazol-2-yl)-4-(3-fluorophenyl)-3-methyl-1H-pyrazole-5-carboxylic acid], the EC50 is reported as “C-”.

Same assay, conditions: Homo sapiens, read-out: EC50

Compared with COc1ccc(-c2nc(-n3nc(C)c(-c4cccc(F)c4)c3C(=O)O)sc2SC(C)C)cc1 [Compound 187, 4-(3-fluorophenyl)-1-(5-(isopropylthio)-4-(4-methoxyphenyl)thiazol-2-yl)-3-methyl-1H-pyrazole-5-carboxylic Acid], Cc1nn(-c2nc(-c3ccc(S(C)(=O)=O)cc3)c(SC(C)C)s2)c(C(=O)O)c1-c1cccc(F)c1 [Compound 188, 4-(3-fluorophenyl)-1-(5-(isopropylthio)-4-(4-(methylsulfonyl)phenyl)thiazol-2-yl)-3-methyl-1H-pyrazole-5-carboxylic Acid] is higher in EC50: 10 to 25 µM for the first, > 40 µM for the second.

First: COc1cc(-c2nc(-n3nc(C)c(-c4cccc(F)c4)c3C(=O)O)sc2SC(C)C)ccc1F [Compound 189, 1-(4-(4-fluoro-3-methoxyphenyl)-5-(isopropylthio)thiazol-2-yl)-4-(3-fluorophenyl)-3-methyl-1H-pyrazole-5-carboxylic Acid]
Second: COc1cc(-c2nc(-n3nc(C)c(-c4cccc(F)c4)c3C(=O)O)sc2SC(C)C)ccc1Cl [Compound 195, 1-(4-(4-chloro-3-methoxyphenyl)-5-(isopropylthio)thiazol-2-yl)-4-(3-fluorophenyl)-3-methyl-1H-pyrazole-5-carboxylic Acid]
The EC50 of the first is higher: 10 to 25 µM for the first, 5 to 10 µM for the second. The second is the more potent here.

Cc1cc(-c2c(C)nn(-c3nc(-c4ccc(Cl)c(C)c4)c(SC(C)C)s3)c2C(=O)O)cc(C)n1 [Compound 190, 1-(4-(4-chloro-3-methylphenyl)-5-(isopropylthio)thiazol-2-yl)-4-(2,6-dimethylpyridin-4-yl)-3-methyl-1H-pyrazole-5-carboxylic Acid] and COc1cc(-c2nc(-n3nc(C)c(-c4cc(C)nc(C)c4)c3C(=O)O)sc2SC(C)C)ccc1Cl [Compound 194, 1-(4-(4-chloro-3-methoxyphenyl)-5-(isopropylthio)thiazol-2-yl)-4-(2,6-dimethylpyridin-4-yl)-3-methyl-1H-pyrazole-5-carboxylic Acid] fall in the same range of EC50: 1 to 5 µM for the first, 1 to 5 µM for the second.

First: Cc1cc(-c2nc(-n3nc(C)c(-c4cccc(F)c4)c3C(=O)O)sc2SC(C)C)ccc1Cl [Compound 191, 1-(4-(4-chloro-3-methylphenyl)-5-(isopropylthio)thiazol-2-yl)-4-(3-fluorophenyl)-3-methyl-1H-pyrazole-5-carboxylic Acid]
Second: Cc1ccc(-c2nc(-n3nc(C)c(-c4cccc(F)c4)c3C(=O)O)sc2SC(C)C)cc1Cl [Compound 207, 1-(4-(3-chloro-4-methylphenyl)-5-(isopropylthio)thiazol-2-yl)-4-(3-fluorophenyl)-3-methyl-1H-pyrazole-5-carboxylic Acid]
The EC50 of the first is lower: 1 to 5 µM for the first, 5 to 10 µM for the second.

Cc1cc(-c2c(C)nn(-c3nc(-c4cc(F)c(Cl)c(F)c4)c(SC(C)C)s3)c2C(=O)O)cc(C)n1 [Compound 192, 1-(4-(4-chloro-3,5-difluorophenyl)-5-(isopropylthio)thiazol-2-yl)-4-(2,6-dimethylpyridin-4-yl)-3-methyl-1H-pyrazole-5-carboxylic Acid] and Cc1nn(-c2nc(-c3cc(F)c(Cl)c(F)c3)c(SC(C)C)s2)c(C(=O)O)c1-c1cccc(F)c1 [Compound 193, 1-(4-(4-chloro-3,5-difluorophenyl)-5-(isopropylthio)thiazol-2-yl)-4-(3-fluorophenyl)-3-methyl-1H-pyrazole-5-carboxylic Acid] fall in the same range of EC50: 1 to 5 µM for the first, 1 to 5 µM for the second.

Cc1cc(-c2c(C)nn(-c3nc(-c4ccc(C(F)(F)F)cc4)c(SC(C)C)s3)c2C(=O)O)cc(C)n1 [Compound 196, 4-(2,6-dimethylpyridin-4-yl)-1-(5-(isopropylthio)-4-(4-(trifluoromethyl)phenyl)thiazol-2-yl)-3-methyl-1H-pyrazole-5-carboxylic Acid] and Cc1cc(-c2c(C)nn(-c3nc(-c4ccc(F)cc4)c(SC(C)C)s3)c2C(=O)O)cc(C)n1 [Compound 204, 4-(2,6-dimethylpyridin-4-yl)-1-(4-(4-fluorophenyl)-5-(isopropylthio)thiazol-2-yl)-3-methyl-1H-pyrazole-5-carboxylic acid] fall in the same range of EC50: 1 to 5 µM for the first, 1 to 5 µM for the second.

Cc1nn(-c2nc(-c3ccc(C(F)(F)F)cc3)c(SC(C)C)s2)c(C(=O)O)c1-c1cccc(F)c1 [Compound 197, 4-(3-fluorophenyl)-1-(5-(isopropylthio)-4-(4-(trifluoromethyl)phenyl)thiazol-2-yl)-3-methyl-1H-pyrazole-5-carboxylic Acid] and Cc1cc(C(F)(F)F)ccc1-c1nc(-n2nc(C)c(-c3cccc(F)c3)c2C(=O)O)sc1SC(C)C [Compound 217, 4-(3-fluorophenyl)-1-(5-(isopropylthio)-4-(2-methyl-4-(trifluoromethyl)phenyl)thiazol-2-yl)-3-methyl-1H-pyrazole-5-carboxylic acid] cannot be ordered by EC50: < 1 µM for the first, < 1 µM for the second.

COc1cc(-c2c(C)nn(-c3nc(-c4ccc(Cl)c(Cl)c4)c(SC(C)C)s3)c2C(=O)O)cc(C)n1 [Compound 199, 1-(4-(3,4-dichlorophenyl)-5-(isopropylthio)thiazol-2-yl)-4-(2-methoxy-6-methylpyridin-4-yl)-3-methyl-1H-pyrazole-5-carboxylic Acid] and COc1cc(Cl)ccc1-c1nc(-n2nc(C)c(-c3cc(C)nc(C)c3)c2C(=O)O)sc1SC(C)C [Compound 206, 1-(4-(4-chloro-2-methoxyphenyl)-5-(isopropylthio)thiazol-2-yl)-4-(2,6-dimethylpyridin-4-yl)-3-methyl-1H-pyrazole-5-carboxylic Acid] fall in the same range of EC50: 1 to 5 µM for the first, 1 to 5 µM for the second.

Compared with Cc1nn(-c2nc(-c3ccc(Cl)c(Cl)c3)c(SC(C)C)s2)c(C(=O)O)c1-c1cc(F)cc(OC2COC2)c1 [Compound 200, 1-(4-(3,4-dichlorophenyl)-5-(isopropylthio)thiazol-2-yl)-4-(3-fluoro-5-(oxetan-3-yloxy)phenyl)-3-methyl-1H-pyrazole-5-carboxylic Acid], Cc1nn(-c2nc(-c3ccc(Cl)c(C#N)c3)c(SC(C)C)s2)c(C(=O)O)c1-c1cccc(F)c1 [Compound 218, 1-(4-(4-chloro-3-cyanophenyl)-5-(isopropylthio)thiazol-2-yl)-4-(3-fluorophenyl)-3-methyl-1H-pyrazole-5-carboxylic Acid] is higher in EC50: 1 to 5 µM for the first, 5 to 10 µM for the second. The first is the more potent here.

Compared with Cc1nn(-c2nc(-c3cccc(F)c3)c(SC(C)C)s2)c(C(=O)O)c1-c1cccc(F)c1 [Compound 201a], Cc1ccc(-c2nc(-n3nc(C)c(-c4cccc(F)c4)c3C(=O)O)sc2SC(C)C)cc1F [Compound 214, 1-(4-(3-fluoro-4-methylphenyl)-5-(isopropylthio)thiazol-2-yl)-4-(3-fluorophenyl)-3-methyl-1H-pyrazole-5-carboxylic acid] is lower in EC50: 25 to 50 µM for the first, 1 to 5 µM for the second. The second is the more potent here.

Cc1nn(-c2nc(-c3cc4ccccc4o3)c(SC(C)C)s2)c(C(=O)O)c1-c1cccc(F)c1 [Compound 201b] and Cc1nn(-c2nc(-c3ccccc3)c(SC(C)C)s2)c(C(=O)O)c1-c1cccc(F)c1 [Compound 202, 4-(3-fluorophenyl)-1-(5-(isopropylthio)-4-phenylthiazol-2-yl)-3-methyl-1H-pyrazole-5-carboxylic acid] fall in the same range of EC50: 10 to 25 µM for the first, 10 to 25 µM for the second.

Cc1nn(-c2nc(-c3ccccc3)c(SC(C)C)s2)c(C(=O)O)c1-c1cnn(C)c1 [Compound 203, 1-(5-(isopropylthio)-4-phenylthiazol-2-yl)-1′,3-dimethyl-1H,1′H-[4,4′-bipyrazole]-5-carboxylic acid] and Cc1nn(-c2nc(-c3cncnc3)c(SC(C)C)s2)c(C(=O)O)c1-c1cccc(F)c1 [Compound 212, 4-(3-fluorophenyl)-1-(5-(isopropylthio)-4-(pyrimidin-5-yl)thiazol-2-yl)-3-methyl-1H-pyrazole-5-carboxylic Acid] cannot be ordered by EC50: > 40 µM for the first, > 40 µM for the second.

First: COc1cc(Cl)ccc1-c1nc(-n2nc(C)c(-c3cccc(F)c3)c2C(=O)O)sc1SC(C)C [Compound 205, 1-(4-(4-chloro-2-methoxyphenyl)-5-(isopropylthio)thiazol-2-yl)-4-(3-fluorophenyl)-3-methyl-1H-pyrazole-5-carboxylic acid]
Second: Cc1cc(Cl)ccc1-c1nc(-n2nc(C)c(-c3cccc(F)c3)c2C(=O)O)sc1SC(C)C [Compound 216, 1-(4-(4-chloro-2-methylphenyl)-5-(isopropylthio)thiazol-2-yl)-4-(3-fluorophenyl)-3-methyl-1H-pyrazole-5-carboxylic acid]
The EC50 of the first is higher: 1 to 5 µM for the first, < 1 µM for the second. The second is the more potent here.

Cc1nn(-c2nc(-c3cc(C)c(=O)n(C)c3)c(SC(C)C)s2)c(C(=O)O)c1-c1cccc(F)c1 [Compound 208, 1-(4-(1,5-dimethyl-6-oxo-1,6-dihydropyridin-3-yl)-5-(isopropylthio)thiazol-2-yl)-4-(3-fluorophenyl)-3-methyl-1H-pyrazole-5-carboxylic Acid] and Cc1cc(-c2nc(-n3nc(C)c(-c4cccc(F)c4)c3C(=O)O)sc2SC(C)C)n(C)n1 [Compound 211, 1-(4-(1,3-dimethyl-1H-pyrazol-5-yl)-5-(isopropylthio)thiazol-2-yl)-4-(3-fluorophenyl)-3-methyl-1H-pyrazole-5-carboxylic acid] cannot be ordered by EC50: > 40 µM for the first, > 40 µM for the second.

Compared with Cc1nn(-c2nc(-c3cc(OC(F)(F)F)ccc3Cl)c(SC(C)C)s2)c(C(=O)O)c1-c1cccc(F)c1 [Compound 209, 1-(4-(2-chloro-5-(trifluoromethoxy)phenyl)-5-(isopropylthio)thiazol-2-yl)-4-(3-fluorophenyl)-3-methyl-1H-pyrazole-5-carboxylic acid], Cc1nn(-c2nc(-c3ccccc3C#N)c(SC(C)C)s2)c(C(=O)O)c1-c1cccc(F)c1 [Compound 215, 1-(4-(2-cyanophenyl)-5-(isopropylthio)thiazol-2-yl)-4-(3-fluorophenyl)-3-methyl-1H-pyrazole-5-carboxylic acid] is higher in EC50: 10 to 25 µM for the first, 25 to 50 µM for the second.

Cc1nn(-c2nc(-c3cncc(C#N)c3)c(SC(C)C)s2)c(C(=O)O)c1-c1cccc(F)c1 [Compound 210, 1-(4-(5-cyanopyridin-3-yl)-5-(isopropylthio)thiazol-2-yl)-4-(3-fluorophenyl)-3-methyl-1H-pyrazole-5-carboxylic acid] was tested, and the EC50 was > 40 µM.
